In ChEMBL document CHEMBL1201862, “PubChem BioAssay data set” (2004):
Calls of active or inactive are those of the source.

Tests used:
[1] = target: Cytochrome P450 3A4 (Homo sapiens, UniProt P08684);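 also: CYP3A4 tested as one member of a cytochrome P450 panel screen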
[2] = target: Cytochrome P450 2C19 (Homo sapiens, UniProt P33261); assay: Cytochrome panel assay with activity outcomes. Panel member name: p450-cyp2c19 Compounds with AC50 equal or less than 10 uM are considered active; assay type: functional; conditions: read-out: AC50
Sequence of Cytochrome P450 2C19 (P33261 whole entry, the tested form may be a part): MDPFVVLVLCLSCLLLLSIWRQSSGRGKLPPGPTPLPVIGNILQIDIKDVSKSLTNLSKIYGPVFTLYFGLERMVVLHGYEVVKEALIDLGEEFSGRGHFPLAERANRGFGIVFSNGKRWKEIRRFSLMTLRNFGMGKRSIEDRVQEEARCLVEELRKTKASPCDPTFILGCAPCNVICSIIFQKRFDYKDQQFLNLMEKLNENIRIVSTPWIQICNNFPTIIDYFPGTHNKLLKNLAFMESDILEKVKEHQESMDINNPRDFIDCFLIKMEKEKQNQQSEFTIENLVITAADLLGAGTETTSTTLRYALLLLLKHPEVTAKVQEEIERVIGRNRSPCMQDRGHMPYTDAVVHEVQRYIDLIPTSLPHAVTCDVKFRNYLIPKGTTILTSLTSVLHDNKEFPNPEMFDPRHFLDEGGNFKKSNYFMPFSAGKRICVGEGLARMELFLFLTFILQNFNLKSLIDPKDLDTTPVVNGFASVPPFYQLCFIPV

[3] = inhibitors of clade B AD8 Env fusion, dose response, cell-based, cherry-pick (AID 652062); assay type: functional;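 also: luciferase signal from cell-cell fusion driven by HIV-1 clade B AD8 Env; potency is for inhibitors of fusion seen as a drop in luminescence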
[4] = target: T1, Microphthalmia-associated transcription factor (Homo sapiens, UniProt O75030); assay: TRPM1 promoter luciferase signal decrease, dose response, MITF inhibitor project, cell-based, SK-MEL-5, cherry-picked, set 3 (AID 493073); assay type: functional
T1 sequence (O75030 whole entry): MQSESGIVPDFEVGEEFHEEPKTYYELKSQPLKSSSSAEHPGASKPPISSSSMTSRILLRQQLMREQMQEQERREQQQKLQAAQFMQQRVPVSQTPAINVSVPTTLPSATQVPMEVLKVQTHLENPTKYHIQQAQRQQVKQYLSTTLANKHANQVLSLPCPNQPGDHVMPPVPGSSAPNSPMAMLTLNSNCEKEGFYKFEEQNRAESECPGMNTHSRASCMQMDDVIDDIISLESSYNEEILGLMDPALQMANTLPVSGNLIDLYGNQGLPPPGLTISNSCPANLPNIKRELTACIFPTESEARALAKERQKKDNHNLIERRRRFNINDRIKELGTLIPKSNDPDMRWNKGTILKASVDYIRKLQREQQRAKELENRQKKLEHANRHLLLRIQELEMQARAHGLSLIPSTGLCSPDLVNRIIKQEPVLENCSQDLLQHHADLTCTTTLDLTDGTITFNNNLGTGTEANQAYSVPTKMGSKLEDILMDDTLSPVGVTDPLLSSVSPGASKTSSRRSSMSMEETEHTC

[5] = NIH-3T3 fibroblast cytotoxicity, dose response, cytotoxicity control, cell-based, fluorescence, Alamar Blue, secondary assay (AID 2327); assay type: functional;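 also: NIH-3T3 mouse fibroblasts cultured with fluconazole at 8 µg/mL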
[6] = C. albicans growth with fluconazole, confirmation, fluorescence, retest (AID 2467); assay type: functional, cell-based
[7] = target: Cytochrome P450 2C9 (Homo sapiens, UniProt P11712)
Sequence of Cytochrome P450 2C9 (P11712 whole entry): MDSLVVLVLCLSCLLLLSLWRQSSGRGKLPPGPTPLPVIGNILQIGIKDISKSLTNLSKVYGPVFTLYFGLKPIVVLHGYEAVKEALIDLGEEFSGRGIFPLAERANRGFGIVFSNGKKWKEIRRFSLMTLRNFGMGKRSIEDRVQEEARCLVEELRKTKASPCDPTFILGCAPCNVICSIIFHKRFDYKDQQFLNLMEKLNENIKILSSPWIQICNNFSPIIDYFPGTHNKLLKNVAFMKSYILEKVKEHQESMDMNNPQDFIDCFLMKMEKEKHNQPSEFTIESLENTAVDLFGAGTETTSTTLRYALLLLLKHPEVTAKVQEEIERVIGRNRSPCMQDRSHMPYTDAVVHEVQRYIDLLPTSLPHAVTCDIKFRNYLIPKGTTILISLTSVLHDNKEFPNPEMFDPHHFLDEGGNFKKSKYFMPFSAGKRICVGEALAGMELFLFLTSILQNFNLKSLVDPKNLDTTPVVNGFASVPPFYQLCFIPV

[8] = Luminescence Cell-Based Dose Confirmation HTS to Identify Inhibitors of Platelet Dense Granule Release. [Related pubchem assays: 1663 (Primary HTS), 1678 (Summary of Project)]; assay type: functional
[9] = target: Luciferin 4-monooxygenase (Photinus pyralis, UniProt P08659); assay: firefly luciferase enzyme inhibitors, dose response, biochemical, luminescence (AID 1891)
Sequence of Luciferin 4-monooxygenase (P08659 whole entry): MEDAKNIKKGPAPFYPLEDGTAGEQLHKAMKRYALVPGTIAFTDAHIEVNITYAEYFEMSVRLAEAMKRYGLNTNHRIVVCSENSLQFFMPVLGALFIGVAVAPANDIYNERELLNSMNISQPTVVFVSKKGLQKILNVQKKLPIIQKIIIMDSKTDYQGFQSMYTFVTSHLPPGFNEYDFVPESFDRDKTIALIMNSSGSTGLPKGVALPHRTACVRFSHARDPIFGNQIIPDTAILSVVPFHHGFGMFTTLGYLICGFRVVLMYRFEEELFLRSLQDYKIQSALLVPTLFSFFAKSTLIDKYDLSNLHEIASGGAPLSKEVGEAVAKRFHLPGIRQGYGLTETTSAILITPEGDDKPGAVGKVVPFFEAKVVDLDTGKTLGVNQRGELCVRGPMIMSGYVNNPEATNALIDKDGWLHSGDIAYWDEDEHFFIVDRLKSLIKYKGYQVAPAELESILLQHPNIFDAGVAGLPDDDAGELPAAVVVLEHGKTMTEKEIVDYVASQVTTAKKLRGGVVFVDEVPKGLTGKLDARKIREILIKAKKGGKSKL

[10] = target: Cytochrome P450 2D6 (Homo sapiens, UniProt P10635);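 also: CYP2D6 member of a cytochrome P450 panel assay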
Sequence of Cytochrome P450 2D6 (P10635 whole entry): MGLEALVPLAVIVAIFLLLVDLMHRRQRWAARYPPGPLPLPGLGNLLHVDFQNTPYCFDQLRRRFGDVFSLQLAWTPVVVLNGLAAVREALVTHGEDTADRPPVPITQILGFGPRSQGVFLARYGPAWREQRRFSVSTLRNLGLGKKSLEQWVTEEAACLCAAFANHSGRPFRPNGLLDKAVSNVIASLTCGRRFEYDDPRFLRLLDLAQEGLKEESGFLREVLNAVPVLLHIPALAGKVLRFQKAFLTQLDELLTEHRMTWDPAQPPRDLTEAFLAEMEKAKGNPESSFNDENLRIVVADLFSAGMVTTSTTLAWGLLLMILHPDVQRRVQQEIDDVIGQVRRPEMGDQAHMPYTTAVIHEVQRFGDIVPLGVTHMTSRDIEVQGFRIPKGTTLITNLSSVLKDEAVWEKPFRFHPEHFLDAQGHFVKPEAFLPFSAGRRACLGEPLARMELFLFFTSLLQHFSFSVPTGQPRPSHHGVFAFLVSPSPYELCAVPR

[11] = test system: BJ; assay: cytotoxicity toward BJ-TERT-LT-ST fibroblasts, dose response, cell-based, RAS-independent, luminescence (AID 1935); assay type: functional; conditions: Homo sapiens;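 also: BJ fibroblasts immortalized with TERT plus LT and ST oncogenes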
[12] = inhibitors of firefly luciferase expression or activity, dose response, H4 neuroglioma cells, luminescence (AID 1990); assay type: functional, cell-based
[13] = target: T2, Streptokinase A (Streptococcus pyogenes serotype M1, UniProt P10520); assay: S. pyogenes streptokinase expression inhibitors, potency, dose response, plasminogen activation absorbance, OD405 (AID 1914); assay type: functional, Streptococcus pyogenes M1 GAS;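 also: secreted streptokinase activity via plasminogen activation per viability signal from cell pellet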
T2 sequence (P10520 whole entry): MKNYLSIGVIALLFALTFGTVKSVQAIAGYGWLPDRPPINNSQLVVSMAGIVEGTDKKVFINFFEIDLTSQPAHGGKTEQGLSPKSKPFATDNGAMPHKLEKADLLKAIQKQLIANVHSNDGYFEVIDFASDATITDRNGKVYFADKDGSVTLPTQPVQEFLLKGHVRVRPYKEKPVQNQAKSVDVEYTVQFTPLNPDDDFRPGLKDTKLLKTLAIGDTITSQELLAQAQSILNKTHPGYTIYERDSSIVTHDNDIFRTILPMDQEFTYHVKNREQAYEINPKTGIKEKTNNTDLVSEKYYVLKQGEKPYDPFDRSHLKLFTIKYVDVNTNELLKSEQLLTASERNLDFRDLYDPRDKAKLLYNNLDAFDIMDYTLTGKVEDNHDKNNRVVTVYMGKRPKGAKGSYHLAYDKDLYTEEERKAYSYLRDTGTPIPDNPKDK

[14] = test system: Streptococcus sp. 'group A'; assay: growth inhibition of control SK(-) GAS strain, dose response, counter-screen for streptokinase expression inhibitor project, luminescence, kanamycin, BacTiterGlo, confirmation (AID 1900); assay type: functional, organism-based
[15] = test system: BJ; assay: cells; assay type: functional, cell-based; conditions: Homo sapiens
[16] = test system: Streptococcus; assay: Group A Streptococcus viability loss, dose response, counter-screen for streptokinase expression inhibitor project, luminescence, BacTiterGlo (AID 1915); assay type: functional, organism-based;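 also: potency for reduction of bacterial viability or growth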
[17] = Luminescence Cell-Based Dose Response HTS to Identify Inhibitors of 5'UTR Stem-Loop Driven Prion Protein mRNA Translation in H4 Neuroglioblastoma Cells. [Related pubchem assays: 1827 (Project Summary), 1813 (Primary HTS)]; assay type: functional
[18] = test system: BJ; assay: cytotoxicity toward BJ-TERT fibroblasts, dose response, cell-based, RAS-independent, luminescence (AID 1933); assay type: functional; conditions: Homo sapiens
[19] = inhibitors of SNCA 5'UTR-driven reporter translation, confirmation, H4 neuroglioma cells, luminescence (AID 1988); assay type: functional, cell-based
[20] = cytotoxicity toward DRD oncogenic fibroblasts, dose response, cell-based, non-viral oncogenic, luminescence (AID 1934); assay type: functional; conditions: Homo sapiens
[21] = inhibitors of intracellular T. cruzi replication, confirmation, NIH3T3 host cells, beta-gal luminescence (AID 2044); assay type: functional, cell-based;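 also: intracellular parasites grown in NIH/3T3 mouse fibroblasts as host cells; luminescent beta-galactosidase reporter signal from transgenic T. cruzi replicating inside host cells; inhibitors lower the luminescence signal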
[22] = cytotoxicity toward NIH3T3 fibroblasts, dose response, counter-screen, cell-based, ATP luminescence, mouse fibroblasts (AID 2010); assay type: functional;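 also: cells exposed to compound for about 90 hours before reading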
[23] = Luminescence Cell-Based Dose Response HTS to Identify Activators of Luciferase Translation or Activity in H4 […] Cells. [Related pubchem assays: 1829 (Project Summary), 1814 (Primary HTS)]; assay type: functional
[24] = target: Paired box protein Pax-8 (Homo sapiens, UniProt Q06710); assay: inhibitors of PAX8-driven TPO luciferase reporter, dose response, RMG-I cells, cherry-pick (AID 687027); assay type: functional, cell-based;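 also: luciferase reporter driven by Pax8 target thyroperoxidase promoter measured by SteadyGlo luminescence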
Sequence of Paired box protein Pax-8 (Q06710 whole entry): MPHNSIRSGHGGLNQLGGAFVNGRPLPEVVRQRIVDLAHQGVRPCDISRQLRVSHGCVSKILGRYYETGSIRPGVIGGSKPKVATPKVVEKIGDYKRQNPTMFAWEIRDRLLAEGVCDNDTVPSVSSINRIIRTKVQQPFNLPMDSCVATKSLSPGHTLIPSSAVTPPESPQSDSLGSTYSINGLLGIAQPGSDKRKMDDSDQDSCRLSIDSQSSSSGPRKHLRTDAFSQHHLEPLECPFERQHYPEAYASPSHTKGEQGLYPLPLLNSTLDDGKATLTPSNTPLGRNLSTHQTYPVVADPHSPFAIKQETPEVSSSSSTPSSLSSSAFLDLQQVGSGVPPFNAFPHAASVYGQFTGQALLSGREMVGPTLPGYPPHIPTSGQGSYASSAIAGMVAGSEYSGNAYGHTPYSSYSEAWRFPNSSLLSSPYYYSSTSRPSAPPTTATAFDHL

[25] = growth suppression of PTEN-null colon cells, dose response, cell-based, HCT116 PTEN knockout (AID 1047); assay type: functional;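 also: HCT116 colon tumor cells with PTEN knocked out; cells exposed to compound for 60 hours before readout; potency for loss of cell viability measured by luminescence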
[26] = growth suppression of beta-catenin-knockout colon cells, dose response, cell-based, HCT116, human colon tumor (AID 1045); assay type: functional;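 also: HCT116 colon tumor cells with beta catenin knocked out; cells exposed to compound for 60 hours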
[27] = Luminescence Cell-Based Dose Retest to Confirm Inhibitors of Cancer Stem Cells. [Related pubchem assays (depositor defined):AID2717, AID2721]; assay type: functional; conditions: Homo sapiens

Sequence of Cytochrome P450 3A4 (P08684 whole entry): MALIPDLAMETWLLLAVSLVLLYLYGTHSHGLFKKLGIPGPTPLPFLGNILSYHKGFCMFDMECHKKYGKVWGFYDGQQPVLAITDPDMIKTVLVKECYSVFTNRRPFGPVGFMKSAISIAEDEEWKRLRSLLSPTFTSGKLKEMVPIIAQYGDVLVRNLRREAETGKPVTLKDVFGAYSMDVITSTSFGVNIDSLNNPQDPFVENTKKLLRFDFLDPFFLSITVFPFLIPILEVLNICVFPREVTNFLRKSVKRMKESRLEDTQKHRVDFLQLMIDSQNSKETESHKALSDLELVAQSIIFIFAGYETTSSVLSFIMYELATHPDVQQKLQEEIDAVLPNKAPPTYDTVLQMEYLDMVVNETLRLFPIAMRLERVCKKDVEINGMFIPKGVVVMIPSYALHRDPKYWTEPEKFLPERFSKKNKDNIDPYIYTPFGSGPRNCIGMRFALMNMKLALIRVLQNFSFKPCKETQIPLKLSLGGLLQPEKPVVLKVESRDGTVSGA

C[C@H](NC[C@H](O)CP(=O)(O)CC1CCCCC1)c1ccc(Cl)c(Cl)c1
AC50 [1]: 31.6 µM (inconclusive)

C[C@@H]1CCCN(CP(=O)(c2ccccc2)c2ccccc2)C1
AC50 [2]: 0.126 µM (inconclusive)
AC50 [1]: 3.98 µM (inconclusive)

Cc1ccc(-n2nnnc2SCn2nnc3ccccc3c2=O)c(C)c1
AC50 [3]: 30.1 µM (active)

COC(=O)[C@H]1C[C@@H]1[C@H](NC(=O)OCc1ccccc1)c1ccccc1
AC50 [1]: 25.1 µM (inconclusive)

Cn1nnnc1Sc1ncnc2scc(-c3cccs3)c12
AC50 [4]: 7 µM (active)

Cn1c(=O)c(C(=O)NCCc2ccccc2)c(O)c2ccccc21
EC50 [5]: > 150 µM (inactive)
EC50 [6]: > 38 µM (not active)

COC(=O)N1CCC[C@@]2(CCN(C(=O)Nc3ccc(OC)cc3)C2)C1
AC50 [7]: 20 µM (inconclusive)
AC50 [1]: 10 µM (inconclusive)

O=C(COc1ccc(C(=O)c2ccccc2)cc1)NC1CCCCC1
EC50 [8]: > 112 µM (not active)
EC50 [9]: > 112 µM (not active)

CCn1c(O)c(N=NC(=O)c2ccc(CSc3nncn3C)cc2)c2ccccc21
EC50 [8]: > 112 µM (not active)
EC50 [9]: > 112 µM (not active)

O=C(/C=C/c1ccccc1)NCC1(c2ccccc2)CCOCC1
EC50 [8]: > 112 µM (not active)
EC50 [9]: > 112 µM (not active)

O=C(c1ccncc1)N1CCC[C@@]2(CCN(c3ncccn3)C2)C1
AC50 [2]: 25.1 µM (inconclusive)
AC50 [7]: 20 µM (inconclusive)
AC50 [1]: 15.8 µM (inconclusive)

CCCCCCN1C=CC(=C/C=C(\C#N)C(=O)OCC)C=C1
AC50 [10]: 14.1 µM (inconclusive)
AC50 [1]: 15.8 µM (inconclusive)

CSc1nc(Oc2ccc3ccccc3c2)c2sccc2n1
EC50 [11]: 13.6 µM (inconclusive)
EC50 [12]: 12.9 µM (active)
EC50 [13]: 39.1 µM (active)
EC50 [14]: 34.3 µM (active)
EC50 [15]: 52.3 µM (active)
EC50 [16]: > 150 µM (not active)
EC50 [17]: > 120 µM (not active)
EC50 [18]: 12.5 µM (active)
EC50 [19]: 8.16 µM (active)
EC50 [20]: 12.8 µM (inconclusive)

O=C(c1ccccc1)c1ccc(NCCCn2ccnc2)c([N+](=O)[O-])c1
EC50 [11]: > 150 µM (inconclusive)
EC50 [21]: 1.8 µM (active)
EC50 [15]: > 150 µM (not active)
EC50 [22]: > 60 µM (not active)
EC50 [18]: > 150 µM (not active)
EC50 [20]: 147 µM (active)

CCOC(=O)Cn1c(=O)n(Cc2ccco2)c(=O)c2ccc(C(=O)NC3CCCC3)cc21
EC50 [8]: 13.8 µM (active)
EC50 [9]: > 112 µM (not active)

CCC(CC)C(=O)Nc1ccc(C)c(O)c1
AC50 [1]: 4.47 µM (inconclusive)

CCn1c2ccccc2c2cc(NC(=O)CNCc3ccccc3OC)ccc21
EC50 [11]: 41.6 µM (inconclusive)
EC50 [15]: > 150 µM (inconclusive)
EC50 [18]: 7.54 µM (inconclusive)
EC50 [20]: 4.21 µM (active)

CCC(=O)Nc1cccc(-c2nnc(SCC(=O)c3ccccc3)n2C)c1
EC50 [23]: 47.5 µM (active)

COc1ccc(-c2cc(-c3ccccc3)c(C#N)c(S(C)(=O)=O)n2)cc1
AC50 [24]: 6.98 µM (active)
EC50 [25]: 7.91 µM (active)
EC50 [26]: 5.07 µM (active)

CCOc1ccc(OCc2ccc(C(=O)NCc3cccnc3)o2)cc1
EC50 [8]: > 112 µM (not active)
EC50 [9]: > 112 µM (not active)
AC50 [10]: 1.26 µM (inconclusive)

CCOc1cc(CNCCO)cc(Br)c1OCc1ccc(Cl)cc1Cl
AC50 [27]: 6.75 µM (active)
EC50 [25]: 4.89 µM (active)
EC50 [26]: 4.69 µM (active)

Cc1noc(C)c1C(=O)N1CCC2(CCCN(Cc3ccccc3)C2)CC1
AC50 [1]: 25.1 µM (inconclusive)

Cc1ccc(C(=O)/C=C/c2c[nH]c3ccccc23)cc1
AC50 [10]: 22.4 µM (inconclusive)
AC50 [1]: 25.1 µM (inconclusive)

CN(NC(=O)c1ccccc1)c1nc2ccccc2nc1C(F)(F)F
EC50 [11]: 17.3 µM (active)
EC50 [15]: 26.9 µM (active)
EC50 [18]: 18.4 µM (active)
EC50 [20]: 16.5 µM (active)

CC(=O)c1ncnn1CC(=O)c1ccc(Cl)cc1Cl
EC50 [5]: 21.9 µM (inconclusive)
EC50 [6]: 1.37 µM (active)

CC(C)CN1CC[C@@]2(CCCN(C(=O)c3cnccn3)C2)C1
AC50 [1]: 15.8 µM (inconclusive)

CCCC(O)(CCC)C(=O)NNc1ccc(C)cc1
EC50 [5]: > 160 µM (inconclusive)
EC50 [6]: > 38 µM (not active)

CC(C)c1ccc(C(=O)OC2CCOC2=O)cc1 (centres undefined)
EC50 [8]: > 112 µM (not active)
EC50 [9]: > 112 µM (not active)

CCOC(=O)c1sc(NC(=O)c2cc(-c3ccc(C)cc3)nc3ccccc23)c(C#N)c1C
EC50 [25]: 9.45 µM (active)
EC50 [26]: 10.5 µM (active)

CCc1cc(=O)oc2cc(C)cc(OCC(=O)NCc3cccnc3)c12
EC50 [8]: > 112 µM (not active)
EC50 [9]: > 112 µM (not active)

COc1ccc(C(O)c2nc3ccccc3n2C)cc1OC (centres undefined)
AC50 [3]: 3.4 µM (active)

CO[C@@H]1/C=C\CC(=O)N[C@@H](C)C(=O)OC[C@H](NS(=O)(=O)c2ccc(C)cc2)[C@H](C)/C=C\CC(=O)OC[C@H]1C
AC50 [1]: 3.98 µM (inconclusive)

O=C(N/N=C/c1ccco1)c1cc(-c2ccncc2)nc2ccccc12
EC50 [11]: > 75 µM (not active)
EC50 [15]: 60.7 µM (active)
EC50 [18]: 15.2 µM (active)
EC50 [20]: 23.3 µM (active)

C/C(N)=C(/C#N)C(=O)COC(=O)c1cc(-c2ccc(Br)cc2)nc2ccccc12
EC50 [13]: 4.43 µM (active)
EC50 [25]: 25 µM (active)
EC50 [14]: 11.9 µM (active)
EC50 [16]: 18.7 µM (active)
EC50 [26]: 24.9 µM (active)

Oc1c(Cl)cccc1/C=N/c1cc(C(F)(F)F)ccc1N1CCCC1
EC50 [8]: > 112 µM (not active)
EC50 [9]: > 112 µM (not active)

C/C(=N\NC(=O)C1CCCC1)c1ccc(Cl)c(Cl)c1
EC50 [5]: > 150 µM (inactive)
EC50 [6]: > 38 µM (not active)

OCC1OC(n2cnc3c(NC4CCCC4)ncnc32)C(O)C1O (centres undefined)
EC50 [8]: 1.09 µM (active)
EC50 [9]: > 112 µM (not active)
